Source: patent US12240844B2 (Voronoi, Inc., priority 2019, dated 2025)

How the values were obtained:
[1] = target: LRRK2 (Homo sapiens, UniProt Q5S007); test: LRRK2 enzyme inhibition, ADP-Glo kinase assay; format: biochemical; parameters: purchased Invitrogen PR8604B
In short: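 Purified human LRRK2 (25 ng) in 40 mM Tris-HCl pH7.4, 20 mM MgCl2, 0.5 mg/ml BSA, 50 μM DTT with 10 μM ATP and substrate ([…]), 2 h at 25° C. Final compound 50 to 0.000001024 μM, 12-point dilution. ADP-Glo luminescence vs solvent control; IC50 (nM).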

[2] = target: T1, human GST-DYRK1A (full length) (Homo sapiens, UniProt Q13627); test: GST-DYRK1A enzyme inhibition, ADP-Glo kinase assay; format: biochemical; details: read-out: DYRK1 IC50
T1 construct: purified human GST-DYRK1A (full length, Thermo scientifics) enzyme; GST; purchased Thermo scientifics
In short: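 Full-length human GST-DYRK1A (10 ng) incubated with 10 uM ATP and specific substrate for 1 h at 25° C in 40 mM Tris-HCl pH 7.4, 20 mM MgCl2, 0.5 mg/mL BSA, 50 uM DTT. ADP formation read by ADP-Glo luminescence; IC50 (nM) versus solvent control, triplicate.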

[3] = target: LRRK2 (G2019S) (Homo sapiens, UniProt Q5S007, G2019S); test: LRRK2 G2019S enzyme inhibition, ADP-Glo kinase assay; format: biochemical; parameters: purchased SignalChem L10-12GG
In short: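 Purified human LRRK2 G2019S (16 ng) with 25 μM ATP and 0.2 μg substrate, 2 h at 25° C in 40 mM Tris-HCl pH 7.4, 20 mM MgCl2, 0.5 mg/ml BSA, 50 μM DTT; compound at 12 final concentrations from 50 μM downward. ADP-Glo luminescence versus solvent control gave IC50 (nM).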

[4] = target: T2, human GST-CLK1 (129-end) (Homo sapiens, UniProt P49759); test: GST-CLK1 enzyme inhibition, ADP-Glo kinase assay; format: biochemical; details: ATP 10 uM
T2 construct: purified human GST-CLK1 (129-end, Signalchem) enzyme; GST; purchased Signalchem
In short: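 GST-CLK1 (129-end, 3 ng) reacted with 10 uM ATP and substrate in 40 mM Tris-HCl pH 7.4, 20 mM MgCl2, 0.5 mg/mL BSA, 50 uM DTT, 1 h at 25° C. ADP-Glo luminescence normalised to solvent control; IC50 from triplicate data.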

[5] = test system: MDA-MB-231 cell line; test: MDA-MB-231 cancer cell proliferation inhibition (Cell Titer-Glo); format: cell-based; details: Homo sapiens, MDA-MB-231 triple-negative breast cancer cell line, 72 hours
Protocol: (§1) In order to evaluate the cancer cell proliferation inhibitory activity of the compounds of the present invention, the following experiments were performed.
(§2) To evaluate the cancer cell proliferation inhibitory effect, the cell growth rate analysis was performed while culturing MDA-MB-231 cell line (Korean Cell Line Bank #30026) and MDA-MB-468 cell line as the triple-negative breast cancer cell line, and SHP-77 (ATCC #CRL-2195) as the small cell lung cancer cell line in DMEM (HyClone #SH30243) and RPMI medium (HyClone #SH3027.01), respectively. More specifically, the cell lines were each plated at 2000 cells/100 μl in each well of a 96-well flat-bottom plate (coming #3903), and then the example compounds having eleven concentrations which were diluted by ⅓ so that the final concentrations were 10.000000, 3.333333, 1.111111, 0.370370, 0.123457, 0.041152, 0.013717, 0.004572, 0.001524, 0.000508 and 0.000169 μM were treated. After 72 hours, 100 μl of Cell Titer-Glo (Promega G7573) was treated, incubated at RT for 10 minutes, and then luminescence was measured using a microplate reader. The measured luminescence degree was calculated as GI50 using Prism (version 8.2 GraphPad) software.
(§3) In the table below, the following designations were used for the evaluation of proliferation inhibitory activity.

[6] = test system: SHP-77; test: SHP-77 cancer cell proliferation inhibition (Cell Titer-Glo); format: cell-based; details: Homo sapiens, SHP77, SHP-77 small cell lung cancer cell line, 72 hours
Protocol: as §1, §2, §3

Sequence of LRRK2 (G2019S) (Q5S007 970-2527 G2019S limits assumed): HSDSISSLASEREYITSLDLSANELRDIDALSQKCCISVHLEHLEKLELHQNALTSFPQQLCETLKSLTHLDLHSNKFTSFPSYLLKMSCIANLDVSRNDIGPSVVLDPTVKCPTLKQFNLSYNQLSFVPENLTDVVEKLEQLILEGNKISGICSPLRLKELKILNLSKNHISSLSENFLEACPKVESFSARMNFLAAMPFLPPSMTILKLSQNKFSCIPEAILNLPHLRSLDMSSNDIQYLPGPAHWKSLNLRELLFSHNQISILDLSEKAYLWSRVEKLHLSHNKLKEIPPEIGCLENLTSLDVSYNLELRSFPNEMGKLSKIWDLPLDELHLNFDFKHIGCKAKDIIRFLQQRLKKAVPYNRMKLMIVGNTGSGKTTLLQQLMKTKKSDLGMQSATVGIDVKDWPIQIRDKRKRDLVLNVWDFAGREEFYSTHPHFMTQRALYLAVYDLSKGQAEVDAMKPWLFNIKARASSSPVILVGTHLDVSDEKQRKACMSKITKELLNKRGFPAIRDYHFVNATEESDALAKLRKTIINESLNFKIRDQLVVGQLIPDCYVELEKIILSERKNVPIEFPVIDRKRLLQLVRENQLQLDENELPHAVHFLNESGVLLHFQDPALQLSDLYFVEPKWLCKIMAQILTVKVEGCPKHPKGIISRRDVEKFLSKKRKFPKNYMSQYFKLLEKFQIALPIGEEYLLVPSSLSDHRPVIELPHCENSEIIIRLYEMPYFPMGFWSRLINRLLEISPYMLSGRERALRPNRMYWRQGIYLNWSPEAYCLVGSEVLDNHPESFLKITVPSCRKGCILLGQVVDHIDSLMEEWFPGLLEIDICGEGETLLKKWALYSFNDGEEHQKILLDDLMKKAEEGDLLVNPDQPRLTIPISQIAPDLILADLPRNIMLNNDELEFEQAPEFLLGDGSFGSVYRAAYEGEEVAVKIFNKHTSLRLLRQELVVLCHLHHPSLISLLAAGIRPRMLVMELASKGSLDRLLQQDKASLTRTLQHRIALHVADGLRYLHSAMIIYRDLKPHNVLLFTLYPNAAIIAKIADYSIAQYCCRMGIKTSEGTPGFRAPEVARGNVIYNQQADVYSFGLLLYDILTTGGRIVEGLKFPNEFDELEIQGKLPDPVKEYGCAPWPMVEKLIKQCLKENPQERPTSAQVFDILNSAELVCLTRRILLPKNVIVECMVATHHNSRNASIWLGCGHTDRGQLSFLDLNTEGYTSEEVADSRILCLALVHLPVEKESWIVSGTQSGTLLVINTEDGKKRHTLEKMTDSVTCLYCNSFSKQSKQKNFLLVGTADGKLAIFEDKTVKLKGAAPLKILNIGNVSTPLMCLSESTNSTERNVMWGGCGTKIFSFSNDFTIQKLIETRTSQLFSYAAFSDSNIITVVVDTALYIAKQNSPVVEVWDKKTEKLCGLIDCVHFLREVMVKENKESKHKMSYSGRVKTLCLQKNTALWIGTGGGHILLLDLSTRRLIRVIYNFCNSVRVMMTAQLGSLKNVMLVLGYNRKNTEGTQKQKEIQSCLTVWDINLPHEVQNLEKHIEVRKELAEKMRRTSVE
T2 sequence (P49759 129-484 limits assumed): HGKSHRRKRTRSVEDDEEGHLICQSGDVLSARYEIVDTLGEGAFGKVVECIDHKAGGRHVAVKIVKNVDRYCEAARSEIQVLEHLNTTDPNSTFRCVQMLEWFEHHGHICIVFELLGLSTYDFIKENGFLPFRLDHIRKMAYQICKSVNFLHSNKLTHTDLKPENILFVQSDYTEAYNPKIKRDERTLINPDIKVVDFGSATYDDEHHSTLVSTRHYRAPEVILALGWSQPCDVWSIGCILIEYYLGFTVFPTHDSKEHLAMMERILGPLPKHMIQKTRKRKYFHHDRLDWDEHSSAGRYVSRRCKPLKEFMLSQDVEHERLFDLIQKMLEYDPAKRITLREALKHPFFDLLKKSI
Sequence of LRRK2 (Q5S007 970-2527 limits assumed): as the sequence (Q5S007 970-2527 G2019S limits assumed) above, with S1050G counted along it

SMILES	IC50 [1] [nM]	IC50 [2] [nM]	IC50 [3] [nM]	IC50 [4] [nM]	GI50 [5] [nM]	GI50 [6] [nM]
COCCNc1cc(Nc2ccc(S(=O)(=O)N3CCC(N4CCOCC4)CC3)cc2OC)nc2[nH]cc(C(F)(F)F)c12 [Example 197, N^6-(2-methoxy-4-((4-morpholinopiperidin-1-yl)sulfonyl)phenyl)-N^4-(2-methoxyethyl)-3-(trifluoromethyl)-1H-pyrrolo[2,3-b]pyridine-4,6-diamine]	< 100	101 to 300	< 100	< 100	301 to 1000	101 to 300
COc1cc(S(=O)(=O)N2CCOCC2)ccc1Nc1cc(NC2CCCCC2)c2c(C(F)(F)F)c[nH]c2n1 [Example 181, N^4-cyclohexyl-N^6-(2-methoxy-4-(morpholinosulfonyl)phenyl)-3-(trifluoromethyl)-1H-pyrrolo[2,3-b]pyridine-4,6-diamine]	301 to 1000	301 to 1000	301 to 1000	301 to 1000	301 to 1000	301 to 1000
COc1cc(S(=O)(=O)N2CCOCC2)ccc1Nc1cc(NC2CC2)c2c(C(F)(F)F)c[nH]c2n1 [Example 186, N^4-cyclopropyl-N^6-(2-methoxy-4-(morpholinosulfonyl)phenyl)-3-(trifluoromethyl)-1H-pyrrolo[2,3-b]pyridine-4,6-diamine]	301 to 1000	301 to 1000	301 to 1000	301 to 1000	301 to 1000	301 to 1000
COc1cc(S(=O)(=O)N2CCC(N3CCOCC3)CC2)ccc1Nc1cc(NCC(C)C)c2c(C(F)(F)F)c[nH]c2n1 [Example 191, N^4-isobutyl-N^6-(2-methoxy-4-((4-morpholinopiperidin-1-yl)sulfonyl)phenyl)-3-(trifluoromethyl)-1H-pyrrolo[2,3-b]pyridine-4,6-diamine]	101 to 300	301 to 1000	301 to 1000	301 to 1000	301 to 1000	301 to 1000
CCNc1cc(Nc2ccc(S(=O)(=O)N3CCC(N4CCOCC4)CC3)cc2OC)nc2[nH]cc(C#N)c12 [Example 138, 4-(ethylamino)-6-((2-methoxy-4-((4-morpholinopiperidin-1-yl)sulfonyl)phenyl)amino)-1H-pyrrolo[2,3-b]pyridine-3-carbonitrile]	< 100	101 to 300	< 100	301 to 1000	< 50	< 50
CCNc1cc(Nc2ccc(S(=O)(=O)N3CCOCC3)cc2OC)nc2[nH]cc(C#N)c12 [Example 132, 4-(ethylamino)-6-((2-methoxy-4-(morpholinosulfonyl)phenyl)amino)-1H-pyrrolo[2,3-b]pyridine-3-carbonitrile]	< 100	301 to 1000	101 to 300	301 to 1000	101 to 300	51 to 100
COc1cc(S(=O)(=O)N2CCOCC2)ccc1Nc1cc(NC2CCC2)c2c(C#N)c[nH]c2n1 [Example 128, 4-(cyclobutylamino)-6-((2-methoxy-4-(morpholinosulfonyl)phenyl)amino)-1H-pyrrolo[2,3-b]pyridine-3-carbonitrile]	< 100	301 to 1000	301 to 1000	301 to 1000	51 to 100	< 50
COCCNc1cc(Nc2ccc(S(=O)(=O)N3CCOCC3)cc2OC)nc2[nH]cc(C#N)c12 [Example 129, 6-((2-methoxy-4-(morpholinosulfonyl)phenyl)amino)-4-((2-methoxyethyl)amino)-1H-pyrrolo[2,3-b]pyridine-3-carbonitrile]	< 100	301 to 1000	< 100	301 to 1000	101 to 300	< 50
CNc1cc(Nc2ccc(S(=O)(=O)N3CCC(N4CCOCC4)CC3)cc2OC)nc2[nH]cc(C#N)c12 [Example 137, 6-((2-methoxy-4-((4-morpholinopiperidin-1-yl)sulfonyl)phenyl)amino)-4-(methylamino)-1H-pyrrolo[2,3-b]pyridine-3-carbonitrile]	< 100	301 to 1000	< 100	301 to 1000	51 to 100	51 to 100
CNc1cc(Nc2ccc(S(=O)(=O)N3CCOCC3)c3c2OCCO3)nc2[nH]cc(C(F)(F)F)c12 [Example 98, N^4-methyl-N^6-(8-(morpholonosulfonyl)-2,3-dihydrobenzo[b] [1,4]dioxin-5-yl)-3-(trifluoromethyl)-1H-pyrrolo[2,3-b]pyridine-4,6-diamine]	101 to 300	101 to 300	< 100	301 to 1000	101 to 300	301 to 1000
O=S(=O)(c1ccc(Nc2cc(C3CC3)c3c(C(F)(F)F)c[nH]c3n2)c2c1OCCO2)N1CCOCC1 [Example 100, 4-cyclopropyl-N-(8-(morpholinosulfonyl)-2,3-dihydrobenzo[b] [1,4]dioxin-5-yl)-3-(trifluoromethyl)-1H-pyrrolo[2,3-b]pyridine-6-amine]	301 to 1000	< 100	301 to 1000	301 to 1000	301 to 1000	301 to 1000
COc1cc(S(=O)(=O)N2CCC(N3CCOCC3)CC2)ccc1Nc1cc(NC2CC2)c2c(C(F)(F)F)c[nH]c2n1 [Example 188, N^4-cyclopropyl-N^6-(2-methoxy-4-((4-morpholinopiperidin-1-yl)sulfonyl)phenyl)-3-(trifluoromethyl)-1H-pyrrolo[2,3-b]pyridine-4,6-diamine 2,2,2-trifluoroacetate]	< 100	301 to 1000	101 to 300	301 to 1000	301 to 1000	101 to 300
COc1cc(S(=O)(=O)N2CCOCC2)ccc1Nc1cc(NCCS(C)(=O)=O)c2c(C#N)c[nH]c2n1 [Example 130, 6-((2-methoxy-4-(morpholinosulfonyl)phenyl)amino)-4-((2-(methylsulfonyl)ethyl)amino)-1H-pyrrolo[2,3-b]pyridine-3-carbonitrile]	< 100	101 to 300	< 100	301 to 1000	301 to 1000	301 to 1000
CCCNc1cc(Nc2ccc(S(=O)(=O)N3CCOCC3)cc2OC)nc2[nH]cc(C#N)c12 [Example 133, 6-((2-methoxy-4-(morpholinosulfonyl)phenyl)amino)-4-(propylamino)-1H-pyrrolo[2,3-b]pyridine-3-carbonitrile]	< 100	301 to 1000	301 to 1000	301 to 1000	101 to 300	51 to 100
CNc1cc(Nc2ccc(S(=O)(=O)N3CCOCC3)cc2OC)nc2[nH]cc(C#N)c12 [Example 131, 6-((2-methoxy-4-(morpholinosulfonyl)phenyl)amino)-4-(methylamino)-1H-pyrrolo[2,3-b]pyridine-3-carbonitrile]	< 100	301 to 1000	< 100	301 to 1000	51 to 100	< 50
COc1cc(S(=O)(=O)N2CCOCC2)ccc1Nc1cc(NCCS(C)(=O)=O)c2c(C(F)(F)F)c[nH]c2n1 [Example 192, N^6-(2-methoxy-4-(morpholinosulfonyl)phenyl)-N^4-(2-(methylsulfonyl)ethyl)-3-(trifluoromethyl)-1H-pyrrolo[2,3-b]pyridine-4,6-diamine]	101 to 300	< 100	301 to 1000	301 to 1000	301 to 1000	301 to 1000
